Measurements as given in patent US6121244A, “Antitumoral method by administration of partricin derivatives” (Prospa B.V., priority 1997, dated 2000).
Entries after “also recorded” stand apart in the source; their conditions may differ. Like-named read-outs stand apart in the source and are kept apart here.

Tests used:
erythrocytes = conditions: cited from earlier work; for total hemolytic conc. (THC): erythrocytes
[1] = tested on: murine WEHI-3B (D+) myelomonocytic leukemia cells; assay: Cytotoxicity by MTT microtiter test; format: cell-based; conditions: for dose dependence of toxic effect: linear regression
Description: A) Microtiter test (MTT) (Pessina et al. "In vitro short-term and long-term cytotoxicity of fluoroquinones on murine cell line", Ind. J.
The cultures were incubated for 7 days at 37° C. in air+5% CO2 and finally 20 μl of MTT at a conc. of 5 mg/ml in PBS were added to each well. After 3-h incubation at 37° C. the cultures were destroyed with 100 μl of a lytic buffer prepared with sodium dodecylsulfate/dimethylforma-mide/acetic acid/HCl. After further overnight incubation, the optical density (OD) at 620 nm was determined with a microplate LP200 detector. The O.D. of the wells with no cells was considered as 0% proliferation. The O.D. of the wells with growing cells in drug-free medium was considered as 100% proliferation.

[2] = tested on: thyroid medullary carcinoma (TMC) cells; assay: Cytotoxicity test (MTT) of cisplatin after pre-treatment with SPA-S-843; format: cell-based
Water solubility = format: physicochemical; conditions: as salts, in particular diascorbate
[3] = tested on: carcino-embryonic antigen (CEA); assay: Carcino-embryonic antigen (CEA) in a patient under chemotherapy, CEA-RIA; format: in vivo, human (patient)
[4] = tested on: murine WEHI-3B (D+) myelomonocytic leukemia cells; conditions: clonogenic test; amphotericin B vs SPA-S-843; FIG. 4
Description: Substances: SPA-S-843 and amphotericin B were dissolved in sterile bidistilled water to a concentration of 2000 μg/ml. The working solutions were prepared in McCoy medium supplemented with penicillin+streptomycin (100 U/ml +100 μg/ml) at the concentrations of from 200 μg/ml to 1.56 μg/ml by subsequent serial 1:2 dilutions.
The murine WEHI-3B (D+) myelomonocytic leukemia cells were maintained through subcultures in 25-cm^2 plastic bottles in McCoy medium (Seromed, Germany) containing 5% FCS (Gibco, USA).
Cell sensitivity to the toxic action of SPA-S-843 in comparison with that of amphotericin B, taken as reference substance, was determined by two different methods:
Acta, 1013, 206-11, 1989).
The clonogenic capacity of WEHI-3B(D+) cells was tested by culturing 300 cells in 0.3 ml of complete enriched medium [McCoy +10% FCS, 10 mM sodium pyruvate, 4% NEAA (10×), 4% Mem Vit (100×)]+0.3% agar in 35 mm Petri plates.
SPA-S-843 and amphotericin B (100 μl) had previously been added to the Petri plates at serial concentrations of from 25 to 0.19 μg/ml. The control plates contained 100 μl of culture medium. The colonies were counted after 7 days of incubation at 37° C. in an atmosphere of air+5% CO2.

[5] = mice, i.v.; cited from earlier work

Compound: CNc1ccc(C(=O)CC(O)CCC(C)C2OC(=O)CC(O)CC(=O)CC(O)CC(O)CC(O)CC(O)CC3(O)CC(O)C(C(=O)NCCN(C)C)C(CC(OC4OC(C)C(O)C(NC(=O)CN(C)C)C4O)C=CC=CC=CC=CC=CC=CC=CC2C)O3)cc1 (stereo not drawn) [SPA-S-843 free base, N-dimethylamino-acetyl-partricin A 2-dimethylaminoethylamide]
- total hemolytic conc. (THC) (erythrocytes): > 18 µg/mL

Compound: CNc1ccc(C(=O)CC(O)CCC(C)C2OC(=O)CC(O)CC(=O)CC(O)CC(O)CC(O)CC(O)CC3(O)CC(O)C(C(=O)NCCN(C)C)C(CC(OC4OC(C)C(O)C(NC(=O)CN(C)C)C4O)C=CC=CC=CC=CC=CC=CC=CC2C)O3)cc1 (stereo not drawn) [SPA-S-843, N-dimethylamino-acetyl-partricin A 2-dimethylaminoethylamide]
- cytotoxicity on WEHI-3B(D+) cells, compared with amphotericin B ([1]; 7 days, FIG. 1): substantially higher; also recorded: more sensitive to SPA-S-843 than to amphotericin B
- dose dependence of toxic effect ([1]; FIG. 1): dose-related kinetics
- IC10 ([1]; vs amphotericin B, FIG. 2): significantly lower
- IC50 ([1]; vs amphotericin B, FIG. 2): significantly lower
- IC90 ([1]; vs amphotericin B, FIG. 2): significantly lower
- concentration at which lytic activity on erythrocytes appears (erythrocytes; of the order of): ≥ 18000 ng/mL
- potentiation of cisplatin cytotoxicity ([2]; incubation with SPA-S-843 (2 μg/ml)): able to potentiate cisplatin cytotoxicity against resistant cells up to the level of naturally sensitive cells; also recorded: cytotoxic for all TMC cells
- effect on resistance of TMC cells to cisplatin ([2]; pre-treatment with SPA-S-843 (2 μg/ml)): substantially counteracted
- water solubility (Water solubility): water soluble
- CEA after phase B ([3]; SPA-S-843 50 mg i.v. combined with 5-fluorouracil (500 mg) and folinic acid (250 mg), 3 weeks later): 65 ng/mL
- sensitivity to usual chemotherapeutic agents in combination with the polyene ([3]; combination with SPA-S-843, one patient): re-established the sensitivity

Compound: C[C@@H]1[C@H](O)[C@@H](C)/C=C/C=C/C=C/C=C/C=C/C=C/C=C/[C@H](O[C@@H]2O[C@H](C)[C@@H](O)[C@H](N)[C@@H]2O)C[C@@H]2O[C@](O)(C[C@@H](O)C[C@@H](O)[C@H](O)CC[C@@H](O)C[C@@H](O)CC(=O)O[C@H]1C)C[C@H](O)[C@H]2C(=O)O [amphotericin B]
- dose dependence of toxic effect ([1]; FIG. 1): dose-related kinetics
- IC10 [4]: significantly higher
- IC50 [4]: significantly higher
- IC90 [4]: significantly higher
- LD50 [5]: 4.77 mg/kg
- total hemolytic conc. (THC) (erythrocytes): 2 µg/mL
